# Measurements from PMC3608651, “A Broad Profile of Co-Dominant Epitopes Shapes the Peripheral Mycobacterium tuberculosis Specific CD8+ T-Cell Immune Response in South African Patients with Active Tuberculosis” (PLoS ONE, 2013).
# Like-named read-outs stand apart in the source and are kept apart here. Marks after values point to notes of the source that are not given here.
# Legend:
# HLA-A*02:01 [1] = target: T1, HLA-A*02:01 (Homo sapiens, UniProt P04439, D140Y/D185E/D98H/E176V/E277Q/G131W/G231S/I119V/I121R/I166T/I218V/L300P/L318F/N151K/N90K/P208A/P217A/Q86G/Q94H/R138H/R169H/T345S); conditions: cited from earlier work
# HLA-A*24:02 [2] = target: T2, HLA-A*24:02 (Homo sapiens, UniProt P04439, D101N/D140Y/D185E/E176V/E190D/F33S/G103R/G107R/I119L/I121M/I306V/K335N/L105A/L180Q/L300P/N151K/N90K/Q86E/Q94H/R106L/R138H/R89G/T104I/T345S/V100E/W191G/Y123F); conditions: cited from earlier work
# HLA-A*02:01 [3] = target: T1, HLA-A*02:01; conditions: cited from earlier work; remark: listed apart in the source
# HLA-A*30:02 [4] = target: T3, HLA-A*30:02 (Homo sapiens, UniProt P04439, D101N/D140H/D185E/E176R/F33S/G80R/H175R/K168Q/Q94H/R138E/R41S/V100E); conditions: cited from earlier work
# HLA-A*02:01 [5] = target: T1, HLA-A*02:01; conditions: percent relative the binding of a positive control peptide, cited from earlier work
# HLA-A*30:02 [6] = target: T3, HLA-A*30:02; conditions: cited from earlier work; remark: listed apart in the source
# HLA-A*24:02 [7] = target: T2, HLA-A*24:02; conditions: cited from earlier work; remark: listed apart in the source
# HLA-A*30:02 [8] = target: T3, HLA-A*30:02; conditions: percent relative the binding of a positive control peptide, cited from earlier work
# HLA-A*24:02 [9] = target: T2, HLA-A*24:02; conditions: percent relative the binding of a positive control peptide, cited from earlier work
# HLA-A*68:01 [10] = target: T4, HLA-A*68:01 (Homo sapiens, UniProt P04439, A269V/D185E/E176V/E277Q/E87N/F33Y/G231S/I121M/I166T/I218V/L180W/L300P/L318F/N151K/P208A/P217A/Q86R/R169H/T345S); format: binding; conditions: time points 0-8 h
# HLA-A*68:01 [11] = target: T4, HLA-A*68:01; format: binding; conditions: duplicated experiments, positive binder >40%
# HLA-A*68:01 [12] = target: T4, HLA-A*68:01; format: binding
# HLA-B*58:01 = HLA-B*58:01 (Homo sapiens, UniProt P01889, A329T/C349S/D201E/D98Y/E176V/E187L/E204Q/E69T/G107R/I218V/I90N/K202T/L105A/L119I/N104I/N87E/Q89R/Q94S/R106L/R155S/R180L/R86G/S101N/S121R/S35A/S48A/T118I/V127L/V306I/V36M/Y140S/Y91M); format: binding; conditions: percent relative the binding of positive control peptide […]; duplicated experiments; positive binder >40%
# HLA-C*07:01 = HLA-C*07:01 (Homo sapiens, UniProt P10321, K90N/S123Y); format: binding; conditions: percent relative the binding of positive control peptide […]; duplicated experiments; positive binder >40%
# HLA-A*24:02 [13] = target: T2, HLA-A*24:02; format: binding; conditions: percent relative the binding of positive control peptide […]; duplicated experiments; positive binder >40%
# HLA-A*30:01 [14] = target: T5, HLA-A*30:01 (Homo sapiens, UniProt P04439, D140H/D185E/E176W/F33S/G80R/H175R/K168Q/R138E/R41S); test: affinity assay (ED50); format: binding; conditions: peptide titrated 10−4 to 10−9 M
# HLA-A*30:02 [15] = target: T3, HLA-A*30:02; format: binding; conditions: percent relative the binding of positive control peptide […]; duplicated experiments; positive binder >40%
# HLA-A*30:01 [16] = target: T5, HLA-A*30:01; format: binding; conditions: percent relative the binding of positive control peptide […]; duplicated experiments; positive binder >40%
# HLA-B*07:02 = HLA-B*07:02 (Homo sapiens, UniProt P01889); format: binding; conditions: percent relative the binding of positive control peptide […]; duplicated experiments; positive binder >40%
# HLA-A*30:01 [17] = target: T5, HLA-A*30:01; test: off-rate assay (t1/2); format: binding; conditions: time points 0-8 h
# HLA-A*30:02 [18] = target: T3, HLA-A*30:02; format: binding; conditions: time points 0-8 h
# HLA-A*30:02 [19] = target: T3, HLA-A*30:02; format: binding
# HLA-A*02:01 [20] = target: T1, HLA-A*02:01; format: binding; conditions: percent relative the binding of positive control peptide […]; plate-bound monomer 0.5 µg/ml; duplicated experiments; positive binder >40%
# [21] = percent relative the binding of positive control peptide […]
substance,measurement,setting,value
AMLGHAGDM [Rv0288_10–18wt],Aff A*02:01 (ED50),HLA-A*02:01 [1]; wild-type epitopes marked *,6e-06 M
same,O-rate A*24:02 (t1/2),HLA-A*24:02 [2]; wild-type epitopes marked *,3.1 h
same,O-rate A*02:01 (t1/2),HLA-A*02:01 [3]; wild-type epitopes marked *,1.7 h
same,O-rate A*30:02 (t1/2),HLA-A*30:02 [4]; wild-type epitopes marked **,1.2 h
same,Bind A*02:01,HLA-A*02:01 [5]; wild-type epitopes marked *,46* percent
same,Aff A*30:02 (ED50),HLA-A*30:02 [6]; wild-type epitopes marked **,0.05 µM
same,Aff A*24:02 (ED50),HLA-A*24:02 [7]; wild-type epitopes marked *,100 µM
same,Bind A*30:02,HLA-A*30:02 [8]; wild-type epitopes marked **,97** percent
same,Bind A*24:02,HLA-A*24:02 [9]; wild-type epitopes marked *,25* percent
DLVRAYHAM [Rv0288_64–72wt],O-rate A*24:02 (t1/2),HLA-A*24:02 [2]; wild-type epitopes marked *,2.9 h
same,O-rate A*68:01 (t1/2),HLA-A*68:01 [10],3.3 h
same,Bind A*68:01,HLA-A*68:01 [11]; percent relative the binding of positive control peptide KTGGPIYKR,34%
same,Aff A*24:02 (ED50),HLA-A*24:02 [7]; wild-type epitopes marked *,2 µM
same,Aff A*68:01 (ED50),HLA-A*68:01 [12]; peptide titrated 10−4 to 10−9 M,0.0004 M
same,Bind A*24:02,HLA-A*24:02 [9]; wild-type epitopes marked *,31* percent
GYAGTLQSL [Rv0288_20–28wt],O-rate A*24:02 (t1/2),HLA-A*24:02 [2],3.7 h
same,Aff A*24:02 (ED50),HLA-A*24:02 [7],0.3 µM
same,Bind A*24:02,HLA-A*24:02 [9]; […],76* percent
HAMSSTHEA [Rv0288_70–78],Aff A*02:01 (ED50),HLA-A*02:01 [1],6e-06 M
same,O-rate A*02:01 (t1/2),HLA-A*02:01 [3],2.5 h
same,O-rate A*30:02 (t1/2),HLA-A*30:02 [4],0.6 h
same,Bind A*02:01,HLA-A*02:01 [5]; […],43* percent
same,O-rate A*68:01 (t1/2),HLA-A*68:01 [10],0.5 h
same,Bind A*68:01,HLA-A*68:01 [11]; [21],77%
same,Aff A*30:02 (ED50),HLA-A*30:02 [6],0.3 µM
same,Bind B*58:01,HLA-B*58:01,16%
same,Bind C*07:01,HLA-C*07:01,6%
same,Aff A*68:01 (ED50),HLA-A*68:01 [12],6e-06 M
same,Bind A*30:02,HLA-A*30:02 [8]; […],88** percent
KLVANNT RL,Bind A*24:02,HLA-A*24:02 [13],73%
same,Aff A*30:01 (ED50),HLA-A*30:01 [14],2E -08 M
same,Bind A*68:01,HLA-A*68:01 [11]; [21],18%
same,Bind A*30:02,HLA-A*30:02 [15],167%
same,Bind A*30:01,HLA-A*30:01 [16],60%
same,Bind B*07:02,HLA-B*07:02,43%
same,Bind B*58:01,HLA-B*58:01,40%
same,O-rate A*30:01 (t1/2),HLA-A*30:01 [17],0.7 h
same,O-rate A*30:02 (t1/2),HLA-A*30:02 [18],2.2 h
same,Bind C*07:01,HLA-C*07:01,13%
same,Aff A*30:02 (ED50),HLA-A*30:02 [19],1E -07 M
same,Bind A*02:01,HLA-A*02:01 [20],81%
MLGHAGDMA [Rv0288_11–19wt],Aff A*02:01 (ED50),HLA-A*02:01 [1]; wild-type epitopes marked *,7e-07 M
same,O-rate A*02:01 (t1/2),HLA-A*02:01 [3]; wild-type epitopes marked *,1.4 h
same,Bind A*02:01,HLA-A*02:01 [5]; wild-type epitopes marked *,67* percent
MYNYPAMLG [Rv0288_5–13wt],O-rate A*24:02 (t1/2),HLA-A*24:02 [2]; wild-type epitopes marked *,1.4 h
same,O-rate A*30:02 (t1/2),HLA-A*30:02 [4]; wild-type epitopes marked **,0.6 h
same,Aff A*30:02 (ED50),HLA-A*30:02 [6]; wild-type epitopes marked **,7 µM
same,Aff A*24:02 (ED50),HLA-A*24:02 [7]; wild-type epitopes marked *,0.6 µM
same,Bind A*30:02,HLA-A*30:02 [8]; wild-type epitopes marked **,45** percent
same,Bind A*24:02,HLA-A*24:02 [9]; wild-type epitopes marked *,72* percent
NFVRSSNLK,Bind A*24:02,HLA-A*24:02 [13],0%
same,Aff A*30:01 (ED50),HLA-A*30:01 [14],9E -07 M
same,O-rate A*68:01 (t1/2),HLA-A*68:01 [10],0.2 h
same,Bind A*68:01,HLA-A*68:01 [11]; [21],84%
same,Bind A*30:02,HLA-A*30:02 [15],0%
same,Bind A*30:01,HLA-A*30:01 [16],101%
same,Bind B*07:02,HLA-B*07:02,0%
same,Bind B*58:01,HLA-B*58:01,10%
same,O-rate A*30:01 (t1/2),HLA-A*30:01 [17],0.4 h
same,Bind C*07:01,HLA-C*07:01,0%
same,Aff A*68:01 (ED50),HLA-A*68:01 [12],3E -06 M
same,Bind A*02:01,HLA-A*02:01 [20],3%
SLGAEIAVE [Rv0288_27–35wt],Aff A*02:01 (ED50),HLA-A*02:01 [1]; wild-type epitopes marked *,1e-05 M
same,O-rate A*02:01 (t1/2),HLA-A*02:01 [3]; wild-type epitopes marked *,1.8 h
same,Bind A*02:01,HLA-A*02:01 [5]; wild-type epitopes marked *,28* percent
SQIMYNYPA [Rv0288_2–10wt],Aff A*02:01 (ED50),HLA-A*02:01 [1],4E-07* M
same,O-rate A*02:01 (t1/2),HLA-A*02:01 [3],4.9* h
same,O-rate A*30:02 (t1/2),HLA-A*30:02 [4],0.3 h
same,Bind A*02:01,HLA-A*02:01 [5]; […],78* percent
same,Aff A*30:02 (ED50),HLA-A*30:02 [6],2 µM
same,Bind A*30:02,HLA-A*30:02 [8]; […],46** percent
TLQSLGAEI [Rv0288_24–32wt],Aff A*02:01 (ED50),HLA-A*02:01 [1]; wild-type epitopes marked *,3e-06 M
same,O-rate A*24:02 (t1/2),HLA-A*24:02 [2]; wild-type epitopes marked *,39.8 h
same,O-rate A*02:01 (t1/2),HLA-A*02:01 [3]; wild-type epitopes marked *,1.7 h
same,Bind A*02:01,HLA-A*02:01 [5]; wild-type epitopes marked *,46* percent
same,Aff A*24:02 (ED50),HLA-A*24:02 [7]; wild-type epitopes marked *,0.09 µM
same,Bind A*24:02,HLA-A*24:02 [9]; wild-type epitopes marked *,16* percent
